Results reported in paper PMC8140105 (Scientific Reports, 2021).

Legend:
[1] = Chemical and protease-inactivated homogenate stability; type: in vitro ADME, ICR-CD-1 mice; settings: for Remaining amount of PapRIV: 1 hour at 37°C
Procedure: The metabolization rate of the peptide varied between different biological matrices such as serum, brain tissue, liver tissue, kidney tissue and faeces. […] Different metabolites of the peptide could be identified. To exclude the possibility of non-enzymatic degradation, the chemical and protease-inactivated homogenate (by pre-heating the homogenate for 5 min at 95 °C) stability of the peptide was determined. Except for kidney tissue, PapRIV remained stable in protease-inactivated homogenates, pointing an enzymatic degradation in serum, liver, brain and faeces (Supplementary Table S1). In protease-inactivated kidney homogenate, approximately 45% of peptide loss after 60 min can be explained by protein interaction with some kidney specific proteins. In serum, six different metabolites were formed. The MS-spectra of the different metabolites formed and the metabolic profiles in different tissues are given in supplementary information (Supplementary Figs. S6, S7). DLPFEH is the main metabolite which is formed in all matrices, metabolization of the native peptide to this metabolite is the main contributor of the low half-lives observed in kidney tissue and serum (Supplementary Fig. S5). Also in faeces, the matrix in which PapRIV is produced by gut bacteria, metabolization to DLPFEH occurred.
Supplementary method S3: Tissue homogenate preparation
Preparation of Krebs-Henseleit buffer (pH 7.4) (KH-buffer)
The powdered medium was dissolved in 900 mL water while stirring. To this solution, 0.3790 g CaCl2×2H2O and 2.098 g NaHCO3 was subsequently added while stirring. NaOH or HCl was used to adjust to pH 7.4. This solution was then further diluted to 1000 mL using ultrapure […]
Preparation of tissue homogenates
- The liver (n = 1), kidneys (n = 6), brains (n = 3), colons (n = 4) and faeces (0.196 g) of ICR-CD-1 mice were collected.
- After cleaning and rinsing the tissues using ice-cold KH buffer, the tissues were cut in little pieces and transferred into a 50 mL tube to which 36 mL ice-cold KH buffer was added.
- The tissues were then homogenized with at tissue homogenizer.
- After the larger particles were allowed to settle for about 30 minutes at 5°C, approximately 25 mL of the middle layer was transferred into a 50 mL Falcon tube using a plastic pipette.
- After shaking the homogenates, the homogenates were dispensed into 2 mL Eppendorf tubes, and stored at -35°C until use.
- The protein content of the homogenates were determined using the Pierce Modified Lowry […]
- Just before use, the homogenates were diluted to a protein concentration of 0.6 mg/mL (i.e.
300 µg / 500 µL) with KH buffer.
- Into a 1.5 ml Protein LoBind tube, 900 µl of serum/tissue extract (500 µl of homogenate/serum and 400 µl of KH buffer, pH 7.4) was transferred.
- After temperature-equilibration at 37°C for 15 min while shaking at 750 rpm, 100 µl of peptide solution (0.1 mg/mL) was added followed by continued incubation at 37°C (while shaking), with […] aliquots taken after 0, 5, 10, 30 and 60 minutes.
- The aliquots were immediately transferred into 500 µl Protein LoBind Eppendorf tubes containing 100 µl of 1% V/V trifluoroacetic acid solution in water, heated for 5 minutes at 95°C, and cooled for 30 minutes in an ice-bath.
- The samples were then centrifuged at 16,000 g for 5 minutes at 5°C.
- The supernatants was then analyzed by UPLC-UV/MS.
Supplementary table S1: Chemical and protease-inactivated homogenate stability of PapRIV […]
Matrix Remaining amount of PapRIV (%)

[2] = tested on: BV-2 microglia cells; experiment: ROS assay (fluorometric intracellular ROS kit); type: cell-based, murine; settings: BV-2 cells, 24 h treatment, fluorescence, n = 12
Procedure: Microglia activation is accompanied by an increased reactive oxygen species (ROS) production. The ROS assay was performed using a fluorometric intracellular ROS kit according to the supplier’s protocol (Sigma-Aldrich, Diegem, Belgium). In brief, 4 × 10^4 cells/well were seeded in a black 96-well plate. Four hours post seeding, 100 µL of master reaction mix was added to the wells and incubated for 1 h after which cells were treated with PapRIV dissolved in PBS for 24 h. Fluorescence intensity was measured using an EnVision fluorometric plate reader at λex = 492/λem = 535 nm (Perkin Elmer, Zaventem, Belgium).

[3] = tested on: BV-2 cells; experiment: Immunoblotting (NF-kB p65, IκBα, NIK); type: cell-based, murine
Procedure: To assess nuclear translocation of NF-kB, cells were lysed after 20 h using the NE-PER protocol (Thermo Scientific). Using this kit, the cytoplasmic and nuclear protein fractions are separated from each other. To asses IκBα expression, cells were lysed with RIPA buffer. Protein content of the lysates was determined using the modified Lowry assay (Thermo Scientific). Proteins (20 µg) were separated using an Any kD gel (SDS-PAGE) and transferred to a nitrocellulose membrane (BioRad, Temse, Belgium). Aspecific binding sites were blocked for 30 min using TBS + 1% casein (BioRad, Temse, Belgium). Western blot was performed using the following primary polyclonal antibodies overnight (4 °C): anti-p65 NFkB (1/500), anti-IκBα (1/1000) and anti-β-actin (1/1000), β-tubulin (1/4000) and anti-Histon H3.3 (1/5000) were used as loading controls. Goat anti-rabbit-AP antibody was used for detection (1/10,000) (60 min). All antibodies were purchased at Thermo Scientific (Merelbeke, Belgium). Finally, the BCIP/NBT substrate was added and the results were analyzed using the GelDoc EZ imager and Image Lab software (BioRad, Temse, Belgium). TBS buffer was used for washing between the steps.

SDLPFEH [PapRIV, heptapeptide (SDLPFEH) quorum sensing peptide originating from the Bacillus cereus group; synthetic, purchased from GL Biochem]
Remaining amount of PapRIV ([1]; Inactivated brain homogenate (pre-heated 5 min at 95 °C)): 101.0%
Remaining amount of PapRIV ([1]; Inactivated colon homogenate (pre-heated 5 min at 95 °C)): 99.2%
Remaining amount of PapRIV ([1]; Inactivated faeces homogenate (pre-heated 5 min at 95 °C)): 101.4%
Remaining amount of PapRIV ([1]; Inactivated kidney homogenate (pre-heated 5 min at 95 °C)): 53.8%
Remaining amount of PapRIV ([1]; Inactivated liver homogenate (pre-heated 5 min at 95 °C)): 101.6%
Remaining amount of PapRIV ([1]; Inactivated serum (pre-heated 5 min at 95 °C)): 99.0%
Remaining amount of PapRIV ([1]; KH-buffer (Krebs-Henseleit, pH 7.4), chemical stability): 99.8%
peptide loss ([1]; protease-inactivated kidney homogenate, after 60 min, explained by protein interaction): approximately 45%
intracellular ROS [2]: increase
NF-kB nuclear translocation ([3]; 20 h, n = 3): increased
NIK expression ([3]; data not shown): not observed
IκBα levels ([3]; n = 3): decreasing
